From the NIST ThermoML archive (doi:10.1016/j.fluid.2011.06.007)
± gives the expanded uncertainty stated by the source.

Experiment: xn = mol fraction of the nth substance listed
Details: Liquid; for mass density: 298.15 K, 101.3 kPa, Vibrating tube method; for interfacial tension: 303.15 K, maximum differential bubble pressure

CCCCCC [hexane] + CCC(C)(C)OC
x1 = 1
Details	interfacial tension [mN/m]	mass density [kg/m3]
–	17.4 ± 0.2	655.19 ± 0.18

CCC(C)(C)OC [2-methoxy-2-methylbutane] + CCCCCC
Details	interfacial tension [mN/m]	mass density [kg/m3]
x2 = 0	22 ± 0.2	765.8 ± 0.14
x2 = 0.038	–	761.49 ± 0.27
x2 = 0.051	21.6 ± 0.2	–
x2 = 0.092	–	755.29 ± 0.27
x2 = 0.1	21.06 ± 0.2	–
x2 = 0.145	–	749.34 ± 0.27
x2 = 0.194	–	743.82 ± 0.27
x2 = 0.209	20.64 ± 0.2	–
x2 = 0.247	–	737.76 ± 0.27
x2 = 0.305	20.12 ± 0.2	–
x2 = 0.346	–	726.73 ± 0.27
x2 = 0.399	19.8 ± 0.2	–
x2 = 0.443	–	715.93 ± 0.27
x2 = 0.497	–	709.95 ± 0.27
x2 = 0.506	19.12 ± 0.2	–
x2 = 0.552	–	703.83 ± 0.27
x2 = 0.597	–	698.92 ± 0.27
x2 = 0.611	18.71 ± 0.2	–
x2 = 0.644	–	693.78 ± 0.27
x2 = 0.696	–	688.15 ± 0.28
x2 = 0.714	18.34 ± 0.2	–
x2 = 0.745	–	682.72 ± 0.28
x2 = 0.795	–	677.33 ± 0.28
x2 = 0.813	18.02 ± 0.2	–
x2 = 0.852	–	671.14 ± 0.28
x2 = 0.901	–	665.86 ± 0.28
x2 = 0.914	17.66 ± 0.2	–
x2 = 0.952	–	660.3 ± 0.28
x2 = 0.96	17.55 ± 0.2	–
